In patent US20080241177A1 (priority 2003, published 2008):
“Also recorded” adds a separate entry of the source.

Experiments:
serum antibodies [1] = assay: Immunization of sheep with the vaccine, anti-peptide ELISA; conditions: for Response higher in the first immunized sheep, on average: first versus second sheep; for Polyclonal sera with reactivity to peptide obtained from immunized sheep: 200 μg peptide mixture in CpG DNA adjuvant, prime and boost; for Response to peptide using the polyclonal sheep sera or rabbit sera: polyclonal sheep sera (FIG. 2A) or rabbit sera (data not shown)
serum antibodies [2] = assay: ELISA for serum antibodies specific for the individual vaccine peptides, human sera; conditions: for Number of individuals with a humoral response to the vaccine peptides, Cancer controls n = 54 / Percent of individuals with a humoral response to the vaccine peptides, Cancer controls n = 54: non-trial cancer controls, sera 1:25 dilution; for Number of individuals with a humoral response to the vaccine peptides, Trial subjects n = 6 / Percent of individuals with a humoral response to the vaccine peptides, Trial subjects n = 6: trial subjects who completed four vaccinations, detectable response at any time point considered positive
[3] = Delayed type hypersensitivity (DTH) testing; format: in vivo, human; conditions: for Induration area, DTH testing: 48 hours following intradermal injection of individual peptide, after four vaccinations; for Number of patients with a peptide-specific DTH response: six trial patients who underwent DTH testing
Procedure: Delayed type hypersensitivity (DTH) testing was carried out 1 month after the final vaccination. […] Induration of […]10 mm^2 at 48 hours after injection was considered positive.

[4] = normal controls, n = 30, not vaccinated

Substance	Response higher in the first immunized sheep, on average (serum antibodies [1]) [%]	Polyclonal sera with reactivity to peptide obtained from immunized sheep (serum antibodies [1]; two sheep)	Number of individuals with a humoral response to the vaccine peptides, Cancer controls n = 54 (serum antibodies [2])	Number of individuals with a humoral response to the vaccine peptides, Normal controls n = 30 (serum antibodies [2]; [4])	Number of individuals with a humoral response to the vaccine peptides, Trial subjects n = 6 (serum antibodies [2])	Induration area, DTH testing ([3]; patient 012)	Induration area, DTH testing ([3]; patient 014)	Induration area, DTH testing ([3]; patient 015)	Induration area, DTH testing ([3]; patient 016)	Induration area, DTH testing ([3]; patient 017)	Induration area, DTH testing ([3]; patient 018)	Number of patients with a peptide-specific DTH response [3]	Response to peptide using the polyclonal sheep sera or rabbit sera (serum antibodies [1])	other results
H-AVYYCLLQALKHWGQGT-OH [Peptide 2, Heavy CDR3 of human anti-p53 antibody with N-terminus specificity]	50	obtained from both sheep	1	0	4	189 mm^2	20 mm^2	86 mm^2	Neg (Neg indicates that induration (if any) was less than 10 mm^2)	71 mm^2	38 mm^2	five	–	Percent of individuals with a humoral response to the vaccine peptides, Cancer controls n = 54 (serum antibodies [2]): 1.9%; Isotype of peptide-specific serum antibodies (serum antibodies [2]; subject 012): IgG1; Isotype of peptide-specific serum antibodies (serum antibodies [2]; subject 014): IgG1 and IgG3; Isotype of peptide-specific serum antibodies (serum antibodies [2]; subject 015): IgG1 and IgG3; Isotype of peptide-specific serum antibodies (serum antibodies [2]; subject 016): IgG4; Percent of individuals with a humoral response to the vaccine peptides, Trial subjects n = 6 (serum antibodies [2]): 66.7%; Number of individuals with a humoral response to the vaccine peptides, Trial subjects n = 6 (serum antibodies [2]; listed as peptide 2): four of the six
H-YFCSRVKAGGPDYWGQGT-OH [Peptide 6, Heavy CDR3 of human anti-p53 antibody with central domain specificity]	50	obtained from both sheep	0	0	0	–	–	–	–	–	–	responses were observed in at least one individual for all of the peptides, except for peptides 3 and 6	positive responses	Number of individuals with a humoral response to the vaccine peptides, Trial subjects n = 6 (serum antibodies [2]; listed as peptide 6): No patient demonstrated a response
H-AGLFCQQYYTTPLTFGGGT-OH [Peptide 4, Light CDR3 of human anti-p53 antibody with N-terminus specificity]	50	obtained from both sheep	0	0	0	Neg (Neg indicates that induration (if any) was less than 10 mm^2)	Neg (Neg indicates that induration (if any) was less than 10 mm^2)	13 mm^2	Neg (Neg indicates that induration (if any) was less than 10 mm^2)	Neg (Neg indicates that induration (if any) was less than 10 mm^2)	Neg (Neg indicates that induration (if any) was less than 10 mm^2)	one	positive responses	Number of individuals with a humoral response to the vaccine peptides, Trial subjects n = 6 (serum antibodies [2]; listed as peptide 4): No patient demonstrated a response
H-LLIYLGSTRASGVPDR-OH [Peptide 7, Light CDR2 of human anti-p53 antibody with central domain specificity]	–	neither animal; also recorded: could not be generated	1	0	0	16 mm^2	Neg (Neg indicates that induration (if any) was less than 10 mm^2)	Neg (Neg indicates that induration (if any) was less than 10 mm^2)	39 mm^2	Neg (Neg indicates that induration (if any) was less than 10 mm^2)	Neg (Neg indicates that induration (if any) was less than 10 mm^2)	two	positive responses	Percent of individuals with a humoral response to the vaccine peptides, Cancer controls n = 54 (serum antibodies [2]): 1.9%; Number of individuals with a humoral response to the vaccine peptides, Trial subjects n = 6 (serum antibodies [2]; listed as peptide 7): No patient demonstrated a response
H-GVYYCMQGLQTPYTFGEGT -OH (H-GVYYCMQGLQTPYTFGEGT-OH) [Peptide 8, Light CDR3 of human anti-p53 antibody with central domain specificity]	–	obtained from both sheep	0	0	2	113 mm^2	Neg (Neg indicates that induration (if any) was less than 10 mm^2)	38 mm^2	Neg (Neg indicates that induration (if any) was less than 10 mm^2)	44 mm^2	Neg (Neg indicates that induration (if any) was less than 10 mm^2)	three	–	Serum antibody titres, first versus second immunized sheep (serum antibodies [1]; two sheep): equivalent; Isotype of peptide-specific serum antibodies (serum antibodies [2]; subject 012): undetectable; Isotype of peptide-specific serum antibodies (serum antibodies [2]; subject 015): undetectable; Percent of individuals with a humoral response to the vaccine peptides, Trial subjects n = 6 (serum antibodies [2]): 33.3%; Number of individuals with a humoral response to the vaccine peptides, Trial subjects n = 6 (serum antibodies [2]; listed as peptide 8): two
H-KLLIHWASTRESGVPDR-OH [Peptide 3, Light CDR2 of human anti-p53 antibody with N-terminus specificity]	–	neither animal; also recorded: could not be generated	0	1	0	–	–	–	–	–	–	responses were observed in at least one individual for all of the peptides, except for peptides 3 and 6	positive responses	Percent of individuals with a humoral response to the vaccine peptides, Normal controls n = 30 (serum antibodies [2]; [4]): 3.3%; Number of individuals with a humoral response to the vaccine peptides, Trial subjects n = 6 (serum antibodies [2]; listed as peptide 3): No patient demonstrated a response
H-PKLLIYKASSLESGVPSR-OH [HIV-L2, reference compound]	–	–	–	–	–	Neg (Neg indicates that induration (if any) was less than 10 mm^2)	Neg (Neg indicates that induration (if any) was less than 10 mm^2)	Neg (Neg indicates that induration (if any) was less than 10 mm^2)	Neg (Neg indicates that induration (if any) was less than 10 mm^2)	Neg (Neg indicates that induration (if any) was less than 10 mm^2)	Neg (Neg indicates that induration (if any) was less than 10 mm^2)	–	–	–
